According to patent US20250255889A1, “METHODS FOR TREATMENT SELECTION FOR CHRONIC LYMPHOCYTIC LEUKEMIA (CLL)” (The Broad Institute, Inc., priority 2022, published 2025):

Tested on: primary CLL samples (CD19+ and CD5+ cells)
Experiment: High-throughput dynamic BH3 profiling (HT-DBP): drug-induced apoptotic priming (delta priming), cytochrome c release after BH3 peptide
Format: cell-based, human
Procedure: By “delta priming” is meant the difference in priming of a cell for apoptosis measured in the presence of an agent for treating chronic lymphocytic leukemia relative to priming of the cell in the presence of an inert carrier. In embodiments, the inert carrier is DMSO.
Dynamic BH3 Profiling Dynamic BH3 profiling (DBP) is a drug screening assay that measures the relative priming of cells in a biological sample for cell death by apoptosis in the presence of a specific compound and/or a pro-apoptotic peptide. By “Dynamic BH3 profiling” is meant measuring drug-induced changes in mitochondrial apoptotic priming. Mitochondrial apoptotic priming is a measure of how close to the apoptotic threshold a cell is. A highly primed cell has relatively less anti-apoptotic binding site availability and is closer to the apoptotic threshold than a poorly primed cell, which has more anti-apoptotic availability to buffer an apoptotic assault and is further from the apoptotic threshold. BH3 peptides derived from the BH3 domain of pro-apoptotic BH3-only proteins provoke a response from viable mitochondria. Cytochrome c released from the mitochondria after a short incubation with BH3 peptide is used as a surrogate for priming. In general, the more sensitive a mitochondrion is to a BH3 peptide, the more primed it is. A drug treatment that enhances priming will cause mitochondria to undergo MOMP more easily when incubated with a fixed concentration of a promiscuously binding BH3 peptide, such as BIM BH3 peptide, compared to control-treated cells. See, for example, Potter, D. S. & Letai, A. To prime, or not to prime: that is the question. Cold Spring Harb. Symp. Quant. Biol. 81, 131-140 (2016); Montero, J. et al. Drug-induced death signaling strategy rapidly predicts cancer response to chemotherapy. Cell 160, 977-989 (2015); Daniels, V. W. et al. Metabolic perturbations sensitize triple-negative breast cancers to apoptosis induced by BH3 mimetics. Sci.
Dynamic BH3 profiling and peptides for use therein are described, for example, in Certo, et al., “Mitochondria primed by death signals determine cellular addiction to antiapoptotic BCL-2 family members,” Cancer Cell, 9:351-365 (2006); and in Foight, et al. “Designed BH3 Peptides with High Affinity and Specificity for Targeting Mcl-1 in Cells,” ACS Chemical Biology, 9:1962-1968 (2014), the disclosures of which are incorporated herein by reference in their entireties for all purposes. The DBP assay enables one to compare the response of a patient tumor sample to a specific drug relative to other drugs and relative to an inert control (e.g., DMSO).
To address the challenge of selecting a proper treatment for a chronic lymphocytic leukemia, experiments were undertaken to optimize high-throughput dynamic BH3 profiling (HT-DBP) for evaluation of the drug sensitivities of CLL samples (FIGS. 1, 13, 5A, 5B, 6A, 6B, and 7A-7C).

[1] = peptide PUMA 1 uM, feature EC-m2
[2] = peptide PUMA 1 uM, feature loss_6q21
[3] = peptide BAD 0.3 uM, feature EC-i
[4] = peptide BAD 0.3 uM, feature loss_1q42.13
[5] = peptide BAD 0.3 uM, feature loss_7p22.2
[6] = peptide BAD 0.3 uM, feature loss_14q32.12
[7] = peptide BAD 0.3 uM, feature loss_16p11.2
[8] = peptide MS1 2.5 uM, feature CNOT3
[9] = peptide PUMA 1 uM, feature loss_7p22.2
[10] = peptide BIM 0.01 uM, feature EC-m2
[11] = peptide BIM 0.01 uM, feature loss_17q23.1
[12] = peptide MS1 2.5 uM, feature ITIH2
[13] = peptide BIM 0.01 uM, feature FBXW7
[14] = peptide BIM 0.01 uM, feature gain_19p13.3
[15] = peptide MS1 2.5 uM, feature BIRC3
[16] = peptide MS1 2.5 uM, feature loss_9p21.3
[17] = peptide MS1 2.5 uM, feature loss_17q11.2
[18] = peptide PUMA 1 uM, feature gain_7q22.1
[19] = peptide PUMA 1 uM, feature loss_14q32.12

Structure (SMILES): Cc1c(-c2ccc(N3CCc4cccc(C(=O)Nc5nc6ccccc6s5)c4C3)nc2C(=O)O)cnn1CC12CC3CC(CC(C3)C1)C2 [A-1331852]
- direction (Feature EC-m2): Resistant
- direction (peptide BAD 0.3 uM, feature CNOT3): Sensitive
- direction (peptide BIM 0.01 uM, feature CARD11): Resistant
- direction (peptide BIM 0.01 uM, feature EC-u2): Sensitive
- direction (peptide BIM 0.01 uM, feature MYD88): Resistant
- direction (peptide PUMA 1 uM, feature CNOT3): Sensitive
- direction [1]: Resistant
- direction [2]: Resistant

Structure (SMILES): Cc1c2c(nn1C)CSCc1cc(n(C)n1)CSc1cc(c3ccccc3c1)OCCCc1c(C(=O)O)n(C)c3c-2c(Cl)ccc13 [AZD5991]
- direction (Feature EC-i): Sensitive
- direction (Feature loss_3p13): Sensitive
- direction [3]: Sensitive
- direction (peptide BAD 0.3 uM, feature POT1): Sensitive
- direction [4]: Sensitive
- direction [5]: Sensitive
- direction [6]: Sensitive
- direction [7]: Sensitive
- direction (peptide BIM 0.01 uM, feature ANK1): Sensitive
- direction (peptide BIM 0.01 uM, feature loss_1p36.11): Sensitive
- direction (peptide BIM 0.01 uM, feature loss_3p13): Sensitive
- direction (peptide BIM 0.01 uM, feature loss_15q26.1): Sensitive
- direction (peptide BIM 0.01 uM, feature loss_18q21.2): Sensitive
- direction [8]: Sensitive
- direction (peptide PUMA 1 uM, feature BIRC3): Sensitive
- direction (peptide PUMA 1 uM, feature EC-i): Sensitive
- direction (peptide PUMA 1 uM, feature loss_1q42.13): Sensitive
- direction [9]: Sensitive
- direction (peptide PUMA 1 uM, feature loss_9p21.3): Sensitive
- direction (peptide PUMA 1 uM, feature loss_16p11.2): Sensitive
- direction (peptide PUMA 1 uM, feature loss_17q11.2): Sensitive

Structure (SMILES): COc1ccc(-c2ccc3c(N4CCOC[C@@H]4C)nc(N4CCOC[C@@H]4C)nc3n2)cc1CO [AZD8055]
- direction (peptide MS1 2.5 uM, feature IGLV321_R110): Resistant
- direction (peptide MS1 2.5 uM, feature NOTCH1): Resistant
- direction (peptide MS1 2.5 uM, feature RPS15): Resistant
- direction (peptide MS1 2.5 uM, feature loss_1p36.11): Resistant
- direction (peptide MS1 2.5 uM, feature loss_3p13): Resistant
- direction (peptide MS1 2.5 uM, feature loss_6q): Resistant
- direction (peptide MS1 2.5 uM, feature loss_18q21.2): Resistant

Structure (SMILES): CN(C)Cc1c(C(=O)NCCOc2ccc(C(=O)NO)cc2)oc2ccccc12 [Abexinostat]
- drug-induced apoptotic priming (across CLL subtypes, 65 primary CLL samples, 20 hours drug): high priming
- efficacy by DBP response (cases where patients would be likely resistant to Nutlin 3, MK-2206 and Zanubrutinib): effective
- direction (peptide BAD 0.3 uM, feature EC-m2): Sensitive
- direction (peptide BIM 0.01 uM, feature CNOT3): Sensitive
- direction [10]: Sensitive
- direction [11]: Sensitive
- direction (peptide BIM 0.01 uM, feature priortrt_Post): Sensitive
- direction (peptide MS1 2.5 uM, feature FBXW7): Sensitive
- direction [12]: Sensitive
- direction (peptide MS1 2.5 uM, feature priortrt_Post): Sensitive
- direction [1]: Sensitive
- direction [2]: Sensitive
- direction (peptide PUMA 1 uM, feature loss_17q23.1): Sensitive

Structure (SMILES): CC(C)c1c(C(=O)Nc2ccccc2)c(-c2ccccc2)c(-c2ccc(F)cc2)n1CC[C@@H](O)C[C@@H](O)CC(=O)O [Atorvastatin]
- direction (peptide BAD 0.3 uM, feature EC-u1): Sensitive
- direction (peptide BAD 0.3 uM, feature FBXW7): Sensitive
- direction (peptide BAD 0.3 uM, feature M-CLL): Resistant
- direction (peptide BAD 0.3 uM, feature RFX7): Sensitive
- direction (peptide BAD 0.3 uM, feature U-CLL): Sensitive
- direction (peptide BAD 0.3 uM, feature ZMYM3): Sensitive
- direction (peptide BAD 0.3 uM, feature gain_19p13.3): Sensitive
- direction (peptide BAD 0.3 uM, feature m-CLL): Resistant
- direction (peptide BAD 0.3 uM, feature n-CLL): Sensitive
- direction (peptide BIM 0.01 uM, feature EC-u1): Resistant
- direction [13]: Resistant
- direction (peptide BIM 0.01 uM, feature RFX7): Resistant
- direction (peptide BIM 0.01 uM, feature ZMYM3): Resistant
- direction [14]: Resistant
- direction (peptide BIM 0.01 uM, feature loss_2q31.1): Resistant
- direction (peptide BIM 0.01 uM, feature loss_10p12.2): Resistant
- direction (peptide BIM 0.01 uM, feature loss_10q24.2): Resistant
- direction (peptide BIM 0.01 uM, feature n-CLL): Resistant
- direction (peptide MS1 2.5 uM, feature RFX7): Resistant
- direction (peptide MS1 2.5 uM, feature ZMYM3): Resistant
- direction (peptide MS1 2.5 uM, feature loss_2q31.1): Resistant
- direction (peptide MS1 2.5 uM, feature loss_10p12.2): Resistant
- direction (peptide MS1 2.5 uM, feature loss_10q24.2): Resistant
- direction (peptide MS1 2.5 uM, feature loss_11q22.3): Resistant
- direction (peptide MS1 2.5 uM, feature n-CLL): Resistant
- direction (peptide PUMA 1 uM, feature FBXW7): Resistant
- direction (peptide PUMA 1 uM, feature RFX7): Resistant
- direction (peptide PUMA 1 uM, feature ZMYM3): Resistant
- direction (peptide PUMA 1 uM, feature gain_16p11.2): Resistant
- direction (peptide PUMA 1 uM, feature loss_2q31.1): Resistant
- direction [9]: Resistant
- direction (peptide PUMA 1 uM, feature loss_10p12.2): Resistant

Structure (SMILES): Nc1ncn([C@@H]2O[C@H](CO)[C@@H](O)[C@H]2O)c(=O)n1 [Azacitidine]
- direction (Feature CARD11): Sensitive
- direction (peptide BAD 0.3 uM, feature CARD11): Sensitive
- direction (peptide BAD 0.3 uM, feature MYD88): Sensitive
- direction (peptide BAD 0.3 uM, feature loss_19p13.11): Sensitive
- direction (peptide BIM 0.01 uM, feature BIRC3): Resistant
- direction [13]: Resistant
- direction (peptide BIM 0.01 uM, feature ITIH2): Resistant
- direction [14]: Resistant
- direction (peptide BIM 0.01 uM, feature loss_9p21.3): Resistant
- direction (peptide BIM 0.01 uM, feature loss_17q11.2): Resistant
- direction [15]: Sensitive
- direction [12]: Sensitive
- direction [16]: Sensitive
- direction [17]: Sensitive
- direction (peptide MS1 2.5 uM, feature loss_19p13.11): Sensitive
- direction (peptide PUMA 1 uM, feature CARD11): Sensitive

Structure (SMILES): Cn1c(CCCC(=O)O)nc2cc(N(CCCl)CCCl)ccc21 [Bendamustine]
- direction (Feature loss_5p15.33): Sensitive
- direction (Feature loss_7p22.2): Sensitive
- direction (Feature loss_12p13.31a): Sensitive
- direction (Feature loss_14q32.12): Sensitive
- direction [3]: Sensitive
- direction [4]: Sensitive
- direction (peptide BAD 0.3 uM, feature loss_5p15.33): Sensitive
- direction [5]: Sensitive
- direction (peptide BAD 0.3 uM, feature loss_12p13.31a): Sensitive
- direction [6]: Sensitive
- direction [7]: Sensitive
- direction [15]: Sensitive
- direction [8]: Sensitive
- direction [16]: Sensitive
- direction [17]: Sensitive
- direction [18]: Sensitive
- direction [19]: Sensitive

Structure (SMILES): CC(C)C[C@H](NC(=O)[C@H](CCc1ccccc1)NC(=O)CN1CCOCC1)C(=O)N[C@@H](Cc1ccccc1)C(=O)N[C@@H](CC(C)C)C(=O)[C@@]1(C)CO1 [Carfilzomib]
- direction [10]: Sensitive
- direction [11]: Sensitive
- direction (peptide PUMA 1 uM, feature MYD88): Sensitive
- direction [18]: Sensitive
- direction (peptide PUMA 1 uM, feature i-CLL): Sensitive
- direction (peptide PUMA 1 uM, feature loss_3p21.31): Sensitive
- direction [19]: Sensitive
